# Data taken from ChEMBL document CHEMBL1141918 (Bioorg Med Chem Lett, 2005).
# Assays:
# Carbonic anhydrase 9 = Carbonic anhydrase 9 (Homo sapiens, UniProt Q16790)
# Carbonic anhydrase 1 = Carbonic anhydrase 1 (Homo sapiens, UniProt P00915)
# Carbonic anhydrase 4 = Carbonic anhydrase 4 (Homo sapiens, UniProt P22748)
# [1] = target: Carbonic anhydrase 5A, mitochondrial (Homo sapiens, UniProt P35218)
# Carbonic anhydrase 2 = Carbonic anhydrase 2 (Homo sapiens, UniProt P00918)
# Chain of Carbonic anhydrase 1 (P00915 whole entry): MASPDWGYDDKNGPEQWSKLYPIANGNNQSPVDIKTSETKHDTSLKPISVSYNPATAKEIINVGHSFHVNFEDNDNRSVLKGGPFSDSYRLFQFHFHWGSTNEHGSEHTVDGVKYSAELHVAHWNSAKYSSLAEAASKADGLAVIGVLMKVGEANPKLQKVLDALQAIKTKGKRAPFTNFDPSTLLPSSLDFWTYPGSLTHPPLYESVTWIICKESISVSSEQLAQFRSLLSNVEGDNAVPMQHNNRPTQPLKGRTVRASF
# Chain of Carbonic anhydrase 4 (P22748 whole entry): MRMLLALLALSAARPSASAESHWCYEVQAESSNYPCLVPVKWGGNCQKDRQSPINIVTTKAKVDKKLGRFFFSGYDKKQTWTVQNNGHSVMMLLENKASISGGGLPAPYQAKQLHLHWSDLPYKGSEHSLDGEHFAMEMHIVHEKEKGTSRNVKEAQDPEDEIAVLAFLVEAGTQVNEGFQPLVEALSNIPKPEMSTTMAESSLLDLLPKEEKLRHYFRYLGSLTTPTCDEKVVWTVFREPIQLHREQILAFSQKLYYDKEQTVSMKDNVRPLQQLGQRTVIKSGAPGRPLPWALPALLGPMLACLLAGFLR
# Chain of Carbonic anhydrase 5A, mitochondrial (P35218 whole entry): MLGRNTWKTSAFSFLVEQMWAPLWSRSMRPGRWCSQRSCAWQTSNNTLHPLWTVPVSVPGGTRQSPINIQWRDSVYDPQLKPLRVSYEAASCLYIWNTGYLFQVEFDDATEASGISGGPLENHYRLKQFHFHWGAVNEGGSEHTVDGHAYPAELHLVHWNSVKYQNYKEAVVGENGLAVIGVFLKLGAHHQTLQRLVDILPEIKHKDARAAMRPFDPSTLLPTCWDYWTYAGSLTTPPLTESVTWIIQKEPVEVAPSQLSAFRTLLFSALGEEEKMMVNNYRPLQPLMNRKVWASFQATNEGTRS
smiles,measurement,setting,value
F[P-](F)(F)(F)(F)F.[Na+],Ki,Carbonic anhydrase 9,8.1 mM
same,Ki,Carbonic anhydrase 1,11 mM
same,Ki,Carbonic anhydrase 4,19.1 mM
same,Ki,[1],> 300 mM
same,Ki,Carbonic anhydrase 2,17.5 mM
